Data from patent US9802962B2, “Tricyclic pyrone compounds reduce amyloid beta aggregates” (priority 2013, dated 2017).

Columns and labels:
MC65 neuroblastoma cells = assay: MC65 protection assay; type: cell-based; conditions: protection of MC65 cells from death caused by intracellular Aβ; for EC50: read-out: effective concentrations for 50% cell survival (EC50)
Method: Employing medium-throughput cell-based MC65 protection assay to screen over one hundred TP compounds, seven TP compounds that protect MC65 neuroblastoma cells from death caused by intracellular Aβ have been identified. […] The EC50 values for CP2, TP70, and TP101 are 120, 80, and 70 nM, respectively.

5×FAD mice [1] = conditions: reported in Hong, et al., J Neurochem, 2009; cited from earlier work
5×FAD mice [2] = assay: In vivo efficacy in 5×FAD mice; conditions: 5×FAD mice
Method: FIGS. 6A-6E. 2-month-old 5×FAD mice were treated with TP70 or vehicle for 6 weeks as described in the text. Four cortical sections evenly distributed through the cerebrum were taken from one hemisphere of each mouse (6 mice in each treatment group) and fluorescently stained with the amyloid dye FSB (blue) and the nuclear dye propidium iodide (PI, red). A: Representative sections that show the PI stain. B: Representative sections that only show the FSB stain. C: Fluorescent staining was objectively quantified by LSC. […] E: A representative Western blot containing the soluble fractions of three mice of each group was analyzed for soluble Aβ dimer (see ref 59 for the method).
Although the mechanism of neuron loss in Alzheimer's disease (AD) remains elusive, it is associated with cerebral accumulation of Aβ42. The 5×FAD mouse model of amyloid deposition expresses five familial AD (FAD) mutations that are additive in driving Aβ42 overproduction.

[3] = log P by octanol/water partition; type: physicochemical
ACAT = ACAT inhibition; type: biochemical; conditions: read-out: half maximal inhibitory concentration (IC50), ACAT
Source text: (§1) It has been reported that an induction of cholesterol efflux resulting in a reduction of Aβ formation/deposition in vitro and in vivo (Kim, et al., J Alzheimers Dis, 2009, 16:121-131). For additional Detail, see the attached manuscript entitled, “Inhibition of Acyl-CoA: Cholesterol Acyltransferase (ACAT), Overexpression of Cholesterol Transporter Gene, and Protection of Amyloid β (Aβ) Oligomers-Induced Neuronal Cell Death by Tricylic Pyrone Molecules” which is incorporated herein.

[4] = Plasma and brain concentrations after i.v. administration in mice; type: in vivo
Method: FIGS. 3A-3B. FIG. 3A. CP2 and TP70 plasma and brain concentrations following i.v. injection in mice (n=3). FIG. 3B. […] The drug concentration was determined using HPLC and mass spectrometry.
HPLC/mass spectrometry were employed to quantify CP2 and TP70 in the plasma and brain after i.v. administration in mice. The CP2 concentration was 200-300 μM in the mouse brain between 0.5 and 2 h following 25 mg/kg i.v. administration (FIG. 3A). Similarly, TP70 concentration reached 190 μM in plasma at 5 min and 160 μM in brain at 2 h following 25 mg/Kg i.v. administration (FIGS. 3A and 3B).

[5] = tested on: ABCA1 cholesterol transporter gene; assay: Increase of ABCA1 cholesterol transporter gene; type: cell-based
Source text: as §1

Structure (SMILES): Cc1cc2c(c(=O)o1)C=C1CCC(C(C)CNCc3c[nH]cn3)CC1O2 (centres unmarked) [TP36]
- EC50 values (in words) (MC65 neuroblastoma cells): nanomolar range

Structure (SMILES): Cc1cc2c(c(=O)o1)C=C1CCC(C(C)CNCc3ccc(O)c4ccccc34)CC1O2 (centres unmarked) [TP54]
- EC50 values (in words) (MC65 neuroblastoma cells): nanomolar range

Structure (SMILES): Cc1cc2c(c(=O)o1)C=C1CCC(C(C)CNCc3ccc(CO)cc3)CC1O2 (centres unmarked) [TP82]
- EC50 values (in words) (MC65 neuroblastoma cells): nanomolar range

Structure (SMILES): Cc1cc2c(c(=O)o1)C=C1CC[C@H](C(C)Cn3cnc(N)c4ncnc3-4)C[C@@H]1O2 (some centres unmarked) [CP2]
- soluble and insoluble Aβ aggregates in vivo (5×FAD mice [1]): reduce soluble and insoluble Aβ aggregates in vivo
- cerebral amyloid load (5×FAD mice [2]): substantially reduce
- drug toxicity during the course of treatment (5×FAD mice [2]): no apparent drug toxicity
- histopathology, hematological counts, and blood chemistry at necropsy (5×FAD mice [2]): No abnormalities
- levels of toxic Aβ dimers (5×FAD mice [2]): substantially reduce
- log P [3]: 2.20
- IC50 (ACAT): 1200 nM
- CNS penetration ([4]; i.v., mice): good CNS penetration
- brain concentration ([4]; mouse brain, between 0.5 and 2 h, 25 mg/kg i.v.): 200 to 300 µM
- EC50 [5]: 900 nM
- EC50 (MC65 neuroblastoma cells): 120 nM

Structure (SMILES): CC(=O)OCCc1cc2c(c(=O)o1)C=C1CC[C@H](C(C)Cn3cnc(N)c4ncnc3-4)C[C@@H]1O2 (some centres unmarked) [TP4]
- EC50 values (in words) (MC65 neuroblastoma cells): nanomolar range

Structure (SMILES): Cc1cc2c(c(=O)o1)C=C1CCC(C(C)CNCc3ccc(O)c(F)c3)CC1O2 (centres unmarked) [TP101]
- EC50 values (in words) (MC65 neuroblastoma cells): nanomolar range
- EC50 (MC65 neuroblastoma cells): 70 nM
